Experimental data published in patent publication US10035810B2, “5,6-dihydro-4H-benzo[b]thieno-[2,3-d]azepine derivative” (PULMOCIDE LIMITED, priority 2014, dated 2018).

Key:
RSV A2 strain = assay: RSV A2-induced CPE in HEp2 cells; type: cell-based; settings: human respiratory syncytial virus
Experimental: Assessment of RSV Induced CPE in HEp2 Cells
HEp2 cells were seeded (10^3/well/50 μL) in 384-well plates (Catalogue number 353962, BD Falcon, Oxford, UK) in […] containing 2 mM L-glutamine and 1 mM sodium pyruvate one day before infection. RSV A2 strain (#0709161v, NCPV, Public Health England, Wiltshire) or RSV B Washington strain (VR-1580, ATCC, Manassas, Va. 20108) virus solutions were prepared in serum free-DMEM with 2 mM L-glutamine and 1 mM sodium pyruvate, and then added (50 μL/well) to achieve a final virus concentration of 1 MOI. Simultaneously Compound (I) (0.5 μL DMSO solution) was added to 100 μL of HEp2 cell culture with virus solution to provide a final DMSO solution of 0.5%. Plates were incubated (37° C./5% CO2) for 5 days for studies using RSV A2 strain or 6 days for those using RSV B strain, and then resazurin sodium salt (5 μL of 0.03% solution; Sigma-Aldrich, Dorset, UK) was added to each well and the plate incubated for a further 6 hr (37° C./5% CO2). The fluorescence of each well [545 nm (excitation)/590 nm (emission)] was determined using a multi-scanner (Clariostar: BMG, Buckinghamshire, UK). The percentage inhibition for each well was calculated and the IC50, IC75 and IC90 values were calculated from the concentration-response curve generated for Compound (I).

HEp2 cells = assay: Cell viability: resazurin assay; type: cell-based, human; settings: incubation with compound
Experimental: Cell Viability: Resazurin Assay
HEp2 cells were seeded in 384-well plates (10^3/well/50 μL; BD Falcon Ref 353962) in FBS DMEM (5%, containing 2 mM L-glutamine and 1 mM sodium pyruvate) one day before experimentation. Serum-free DMEM (50 μL) was added to test wells while for control wells the media was removed and sterile water (100 μL) was added. Compound (I) (0.5 μL DMSO solution) was added to give a final DMSO concentration of 0.5%. Hep2 cells were incubated with each test compound for 5 days (37° C./5% CO2 in 5% FBS) and then resazurin stock solution (5 μL; 0.03%) was added to each well and the plate incubated for a further 6 hr (37° C./5% CO2). The fluorescence of each well at 545 nm (excitation) and 590 nm (emission) was determined using a multi-scanner (Clariostar: BMG Labtech). The percentage loss of cell viability was calculated for each well relative to vehicle (0.5% DMSO) treatment.
Any apparent increase in cell viability associated with test compound treatment relative to vehicle is consequently tabulated as a negative percentage. Where appropriate, a CC50 value was calculated from the concentration-response curve generated for Compound (I).

RANTES gene transcript = assay: RSV infection in cotton rats: RANTES gene transcript in lung (qRT-PCR); type: in vivo, cotton rats (Sigmodon hispidus); settings: for RANTES gene transcript % inhibition / RANTES gene transcript (/β-actin), Median: cotton rats, lung, intranasal
Experimental: RSV Infection in Cotton Rats
Male Sigmodon hispidus cotton rats between 6 and 8 weeks of age were infected with hRSV/A/Long (ATCC, Manassas, Va.; 10^5 pfu) in a volume of 0.1 mL of sucrose stabilizing media. Compound (I) was dissolved in 100% DMSO (at 3.3, 10, 33 and 100 mg/mL), then diluted at 1:10 in isotonic saline to achieve 10% DMSO in all treatments. Formulations were then sonicated to produce suspensions. The resulting suspensions were administered intranasally (50 μL) by pipette 4 hr before infection (on day 0), and then on days 1, 2 and 3 post infection. Four days after RSV challenge, the animals were euthanised and the lungs were removed. The left lobe was used for viral titration via plaque assay and the lingular lobe for RSV/A/Long NS-1 qRT-PCR and cytokine qRT-PCR.
Total RNA was also extracted from homogenized lung tissue (RNeasy purification kit; Qiagen) and a sample (1 μg) was used to prepare cDNA using QuantiTect Reverse Transcription Kit (Qiagen). For real-time PCR reactions (RSV NS-1 and RANTES genes) the QuantiFast SYBR® Green PCR Kit (Qiagen) was used in a final volume of 25 μL, with final primer concentrations of 0.5 μM. Amplifications were performed on a Bio-Rad iCycler for 1 cycle of 95° C. for 3 min, followed by 40 cycles of 95° C. for 10 sec, 60° C. for 10 sec, and 72° C. for 15 sec. Baseline cycles and cycle threshold (Ct) were calculated by the iQ5 software in the PCR Base Line Subtracted Curve Fit mode. The standard curves were developed using serially diluted cDNA sample most enriched in the transcript of interest (e.g., lungs from day 4 post-primary RSV infection). The Ct values were plotted against login cDNA dilution factor. These curves were used to convert the Ct values obtained for different samples to relative expression units which were then normalized to the level of β-actin mRNA (“housekeeping gene”) expressed in the corresponding sample. The mRNA levels were expressed as the geometric mean±SEM for all animals in a group.

`Cc1cnc(N2CC3(CCOCC3)C2)c(C(=O)Nc2ccc(C(=O)N3CCc4cc(C(=O)Nc5c(C)cccc5F)sc4-c4ccccc43)cc2)c1` [Compound (I), N-(2-fluoro-6-methylphenyl)-6-(4-(5-methyl-2-(7-oxa-2-azaspiro[3.5]nonan-2-yl)nicotinamido)benzoyl)-5,6-dihydro-4H-benzo[b]thieno[2,3-d]azepine-2-carboxamide] was tested, and the IC50 (RSV A2 strain; HEp-2, 120 h, 1 MOI, 5 days) was 0.017 nM, the inhibition at 0.1 µg/mL (RSV A2 strain; HEp-2, at 0.1 μg/mL) was 100% and the “Effect on cell viability (in words)” value (HEp2 cells) was “No effect on cell viability”. For the same compound, the “RANTES gene transcript % inhibition” value (RANTES gene transcript; 0.33 mg/mL) was 28%, the “RANTES gene transcript (/β-actin), Median” value (RANTES gene transcript; 0.33 mg/mL) was 0.21 /β-actin and the “RANTES gene transcript % inhibition” value (RANTES gene transcript; 1.0 mg/mL) was 45%. The “RANTES gene transcript (/β-actin), Median” value (RANTES gene transcript; 1.0 mg/mL) was 0.16 /β-actin, the “RANTES gene transcript % inhibition” value (RANTES gene transcript; 3.3 mg/mL) was 62% and the “RANTES gene transcript (/β-actin), Median” value (RANTES gene transcript; 3.3 mg/mL) was 0.11 /β-actin. For the same compound, the “RANTES gene transcript % inhibition” value (RANTES gene transcript; 10 mg/mL) was 55%, the “RANTES gene transcript (/β-actin), Median” value (RANTES gene transcript; 10 mg/mL) was 0.13 /β-actin and the “RANTES transcripts in lung (in words)” value (RANTES gene transcript; infected cotton rats) was “dose-dependent inhibition”.
